Source: the supplement of paper PMC10307832

Tests used:
Experiment in all cases: relative viability (nuclei count vs DMSO), 5 days (fraction); higher = more cells survive
NCI-H2126 = system: NCI-H2126
Summary of the method: (§1)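 Relative viability equals treated-well nuclei counts divided by vehicle-well nuclei counts. Counts came from 4× images of lung cancer cell lines grown in 1536-well plates for 5 days after pin-tool dosing on the day after seeding. Dosing used one drug alone or a fixed anchor-drug dose plus five library-drug doses (not always all listed) in √10 steps, and values are medians of duplicate plates.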

LCLC-103H = system: LCLC-103H
Summary of the method: as §1

SK-MES-1 = system: SK-MES-1
Summary of the method: as §1

NCI-H1944 = system: NCI-H1944
Summary of the method: as §1

NCI-H1993 = system: NCI-H1993
Summary of the method: as §1

PC-14 = system: PC-14
Summary of the method: as §1

LK-2 = system: LK-2
Summary of the method: as §1

HCC-827 = system: HCC-827
Summary of the method: as §1

NCI-H661 = system: NCI-H661
Summary of the method: as §1

NCI-H727 = system: NCI-H727
Summary of the method: as §1

NCI-H441 = system: NCI-H441
Summary of the method: as §1

HOP-62 = system: HOP-62
Summary of the method: as §1

EKVX = system: EKVX
Summary of the method: as §1

LXF-289 = system: LXF-289
Summary of the method: as §1

NCI-H647 = system: NCI-H647
Summary of the method: as §1

ChaGo-K-1 = system: ChaGo-K-1
Summary of the method: as §1

NCI-H2170 = system: NCI-H2170
Summary of the method: as §1

BEN = system: BEN
Summary of the method: as §1

LOU-NH91 = system: LOU-NH91
Summary of the method: as §1

NCI-H1666 = system: NCI-H1666
Summary of the method: as §1

NCI-H1355 = system: NCI-H1355
Summary of the method: as §1

RERF-LC-KJ = system: RERF-LC-KJ
Summary of the method: as §1

NCI-H1437 = system: NCI-H1437
Summary of the method: as §1

Cc1cn(-c2cc(NC(=O)c3ccc(C)c(Nc4nccc(-c5cccnc5)n4)c3)cc(C(F)(F)F)c2)cn1 [Nilotinib] + CC(=O)c1c(C)c2cnc(Nc3ccc(N4CCNCC4)cn3)nc2n(C2CCCC2)c1=O [Palbociclib] (partner 0.5 µM)
relative viability (NCI-H2126; first compound 0.001 µM): 0.337
relative viability (NCI-H2126; first compound 0.003162 µM): 0.333
relative viability (NCI-H2126; first compound 0.01 µM): 0.382
relative viability (NCI-H2126; first compound 0.03162 µM): 0.321
relative viability (NCI-H2126; first compound 0.1 µM): 0.346
relative viability (LCLC-103H; first compound 0.001 µM): 0.425
relative viability (LCLC-103H; first compound 0.003162 µM): 0.403
relative viability (LCLC-103H; first compound 0.01 µM): 0.46
relative viability (LCLC-103H; first compound 0.03162 µM): 0.489
relative viability (LCLC-103H; first compound 0.1 µM): 0.44
relative viability (SK-MES-1; first compound 0.001 µM): 0.347
relative viability (SK-MES-1; first compound 0.003162 µM): 0.298
relative viability (SK-MES-1; first compound 0.01 µM): 0.313
relative viability (SK-MES-1; first compound 0.03162 µM): 0.377
relative viability (SK-MES-1; first compound 0.1 µM): 0.32
relative viability (NCI-H1944; first compound 0.001 µM): 0.279
relative viability (NCI-H1944; first compound 0.003162 µM): 0.335
relative viability (NCI-H1944; first compound 0.01 µM): 0.372
relative viability (NCI-H1944; first compound 0.03162 µM): 0.365
relative viability (NCI-H1944; first compound 0.1 µM): 0.378
relative viability (NCI-H1993; first compound 0.001 µM): 0.688
relative viability (NCI-H1993; first compound 0.003162 µM): 0.705
relative viability (NCI-H1993; first compound 0.01 µM): 0.762
relative viability (NCI-H1993; first compound 0.03162 µM): 0.624
relative viability (NCI-H1993; first compound 0.1 µM): 0.851
relative viability (PC-14; first compound 0.001 µM): 0.45
relative viability (PC-14; first compound 0.003162 µM): 0.741
relative viability (PC-14; first compound 0.01 µM): 0.666
relative viability (PC-14; first compound 0.03162 µM): 0.426
relative viability (PC-14; first compound 0.1 µM): 0.713
relative viability (LK-2; first compound 0.001 µM): 0.751
relative viability (LK-2; first compound 0.003162 µM): 0.475
relative viability (LK-2; first compound 0.01 µM): 0.788
relative viability (LK-2; first compound 0.03162 µM): 0.698
relative viability (LK-2; first compound 0.1 µM): 0.992
relative viability (HCC-827; first compound 0.001 µM): 0.56
relative viability (HCC-827; first compound 0.003162 µM): 0.451
relative viability (HCC-827; first compound 0.03162 µM): 0.435
relative viability (HCC-827; first compound 0.1 µM): 0.469
relative viability (NCI-H661; first compound 0.001 µM): 0.438
relative viability (NCI-H661; first compound 0.003162 µM): 0.396
relative viability (NCI-H661; first compound 0.01 µM): 0.404
relative viability (NCI-H661; first compound 0.03162 µM): 0.444
relative viability (NCI-H661; first compound 0.1 µM): 0.361
relative viability (NCI-H727; first compound 0.001 µM): 0.667
relative viability (NCI-H727; first compound 0.003162 µM): 0.69
relative viability (NCI-H727; first compound 0.01 µM): 0.71
relative viability (NCI-H727; first compound 0.03162 µM): 0.593
relative viability (NCI-H727; first compound 0.1 µM): 0.633
relative viability (NCI-H441; first compound 0.001 µM): 0.204
relative viability (NCI-H441; first compound 0.003162 µM): 0.209
relative viability (NCI-H441; first compound 0.01 µM): 0.197
relative viability (NCI-H441; first compound 0.03162 µM): 0.201
relative viability (NCI-H441; first compound 0.1 µM): 0.192
relative viability (HOP-62; first compound 0.003162 µM): 0.425
relative viability (HOP-62; first compound 0.01 µM): 0.439
relative viability (EKVX; first compound 0.001 µM): 0.372
relative viability (EKVX; first compound 0.003162 µM): 0.492
relative viability (EKVX; first compound 0.01 µM): 0.479
relative viability (EKVX; first compound 0.03162 µM): 0.379
relative viability (EKVX; first compound 0.1 µM): 0.62
relative viability (LXF-289; first compound 0.001 µM): 0.673
relative viability (LXF-289; first compound 0.003162 µM): 0.771
relative viability (LXF-289; first compound 0.01 µM): 0.666
relative viability (LXF-289; first compound 0.03162 µM): 0.607
relative viability (LXF-289; first compound 0.1 µM): 0.577
relative viability (NCI-H647; first compound 0.001 µM): 0.384
relative viability (NCI-H647; first compound 0.003162 µM): 0.382
relative viability (NCI-H647; first compound 0.01 µM): 0.468
relative viability (NCI-H647; first compound 0.03162 µM): 0.266
relative viability (NCI-H647; first compound 0.1 µM): 0.26
relative viability (ChaGo-K-1; first compound 0.001 µM): 0.898
relative viability (ChaGo-K-1; first compound 0.003162 µM): 1.25
relative viability (ChaGo-K-1; first compound 0.01 µM): 1.06
relative viability (ChaGo-K-1; first compound 0.03162 µM): 0.873
relative viability (ChaGo-K-1; first compound 0.1 µM): 0.894
relative viability (NCI-H2170; first compound 0.001 µM): 0.373
relative viability (NCI-H2170; first compound 0.003162 µM): 0.474
relative viability (NCI-H2170; first compound 0.01 µM): 0.436
relative viability (NCI-H2170; first compound 0.03162 µM): 0.379
relative viability (NCI-H2170; first compound 0.1 µM): 0.44
relative viability (BEN; first compound 0.001 µM): 0.484
relative viability (BEN; first compound 0.003162 µM): 0.489
relative viability (BEN; first compound 0.01 µM): 0.465
relative viability (BEN; first compound 0.03162 µM): 0.548
relative viability (BEN; first compound 0.1 µM): 0.503
relative viability (LOU-NH91; first compound 0.001 µM): 0.51
relative viability (LOU-NH91; first compound 0.003162 µM): 0.543
relative viability (LOU-NH91; first compound 0.01 µM): 0.48
relative viability (LOU-NH91; first compound 0.03162 µM): 0.535
relative viability (LOU-NH91; first compound 0.1 µM): 0.586
relative viability (NCI-H1666; first compound 0.001 µM): 0.62
relative viability (NCI-H1666; first compound 0.003162 µM): 0.673
relative viability (NCI-H1666; first compound 0.01 µM): 0.588
relative viability (NCI-H1666; first compound 0.03162 µM): 0.583
relative viability (NCI-H1666; first compound 0.1 µM): 0.65
relative viability (NCI-H1355; first compound 0.001 µM): 0.423
relative viability (NCI-H1355; first compound 0.003162 µM): 0.457
relative viability (NCI-H1355; first compound 0.01 µM): 0.486
relative viability (NCI-H1355; first compound 0.03162 µM): 0.494
relative viability (NCI-H1355; first compound 0.1 µM): 0.468
relative viability (RERF-LC-KJ; first compound 0.001 µM): 0.965
relative viability (RERF-LC-KJ; first compound 0.003162 µM): 1.11
relative viability (RERF-LC-KJ; first compound 0.01 µM): 1.21
relative viability (RERF-LC-KJ; first compound 0.03162 µM): 0.896
relative viability (RERF-LC-KJ; first compound 0.1 µM): 1.03
relative viability (NCI-H1437; first compound 0.001 µM): 0.28
relative viability (NCI-H1437; first compound 0.003162 µM): 0.304
relative viability (NCI-H1437; first compound 0.01 µM): 0.308
relative viability (NCI-H1437; first compound 0.03162 µM): 0.276
relative viability (NCI-H1437; first compound 0.1 µM): 0.32
